The values that follow come from patent US20240228488A1 (TAKEDA PHARMACEUTICAL COMPANY LIMITED, priority 2021, published 2024).

The EC50 is the concentration needed to bring the measured effect to its halfway point. The IC90 is the concentration needed for an effect of 90%.

Assay [1] has as its target human activated kallikrein enzyme (Homo sapiens, UniProt P03952). In words: Plasma kallikrein inhibition, fluorogenic PFR-AMC substrate, 500 pM activated kallikrein format. It counts as biochemical. As to conditions: 500 pM activated kallikrein, 300 uM PFR-AMC, 30 min preincubation, 10 min reaction; read-out: Primary Dose Response Assay: Average EC50. An outline of the steps:
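500 pM enz + cpd, 30 min RT preinc; start w/ PFR-AMC 300 uM; 10 min RT; Ex380/Em460. Buffer: Tris 20 mM pH 7.5, EDTA 1 mM, NaCl 150 mM, PEG-400 0.1%, Triton 0.1%. EC50.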

For a further assay, the target named is T1, plasma kallikrein (Homo sapiens, UniProt P03952).
T1 construct: from tissue
T1 sequence (P03952 391-638 limits assumed): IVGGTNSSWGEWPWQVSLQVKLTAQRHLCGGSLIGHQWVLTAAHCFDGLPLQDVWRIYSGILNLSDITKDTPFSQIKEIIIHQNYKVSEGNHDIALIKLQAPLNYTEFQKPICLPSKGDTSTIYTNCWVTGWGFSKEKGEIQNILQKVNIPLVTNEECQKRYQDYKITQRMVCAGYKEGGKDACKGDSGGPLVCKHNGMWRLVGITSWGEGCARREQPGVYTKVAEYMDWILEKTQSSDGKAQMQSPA
T1 sequence (P03952 20-390 partner limits assumed): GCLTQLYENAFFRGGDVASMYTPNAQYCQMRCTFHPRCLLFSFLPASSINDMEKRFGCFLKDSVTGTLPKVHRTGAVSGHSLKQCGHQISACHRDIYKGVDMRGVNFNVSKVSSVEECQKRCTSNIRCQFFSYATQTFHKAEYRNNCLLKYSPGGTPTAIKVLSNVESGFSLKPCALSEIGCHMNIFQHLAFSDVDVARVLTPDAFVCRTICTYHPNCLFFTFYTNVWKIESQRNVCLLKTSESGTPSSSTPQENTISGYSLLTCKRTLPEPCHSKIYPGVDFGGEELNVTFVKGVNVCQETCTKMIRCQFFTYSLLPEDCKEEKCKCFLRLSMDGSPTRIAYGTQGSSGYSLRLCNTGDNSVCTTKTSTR
Briefly: Neat human plasma assay, FXIIa contact pathway-activated, PFR-AMC substrate. It counts as biochemical. To be noted: citrated human plasma 78% final, 10 nM human FXIIa, 100 μM PFR-AMC; read-out: Human Plasma Assay: IC90. An outline of the steps: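 Citrated human plasma (78% final) with compound, contact-activated by 10 nM human FXIIa in pKal buffer pH 7.5, with 100 μM PFR-AMC. Fluorescence (360/480 nm) followed 5 min at room temperature; rates versus concentration fitted by 4-parameter equation for IC50/IC90.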

Sequence of human activated kallikrein enzyme (P03952 391-638 limits assumed): as the sequence (P03952 391-638 limits assumed) above
Sequence of human activated kallikrein enzyme (P03952 20-390 partner limits assumed): as the sequence (P03952 20-390 partner limits assumed) above

As for `O=C(Nc1cc(NCc2cn3cc(C4CC4)ccc3n2)ccn1)[C@H]1C[C@@H]1c1cccc(Cl)c1` (single isomer, unassigned) [Example 117], in assay [1], the EC50 was under 1 nM. In addition, the IC90 on plasma kallikrein is 1500 to 10000 nM.
`Cc1ccnc([C@H]2C[C@@H]2C(=O)Nc2cc(NCc3cn4cc(C5CC5)cc(S(C)(=O)=O)c4n3)ncn2)n1` (single isomer, unassigned) [Example 324]: the EC50 in assay [1] was under 1 nM. Besides, the IC90 at plasma kallikrein is 400 to 1500 nM.
For the molecule `Cc1ccnc([C@H]2C[C@@H]2C(=O)Nc2cc(N[C@H](C)c3cn4cc(C5CC5)cc(N5CC(=O)N(C)C5=O)c4n3)ncn2)n1` (single isomer, unassigned) [Example 451], the EC50 in assay [1] is under 1 nM. The IC90 at plasma kallikrein was 400 to 1500 nM.
For `Cc1ccnc([C@H]2C[C@@H]2C(=O)Nc2cc(N[C@H](C)c3cn4cc(C5CC5)cc(N5CC(=O)N(C)C5=O)c4n3)nc(C)n2)n1` (single isomer, unassigned) [Example 456], the EC50 in assay [1] was under 1 nM. Besides, the IC90 on plasma kallikrein was under 400 nM.
For `COc1ccc(C#N)c([C@H]2C[C@@H]2C(=O)Nc2cc(NCc3cn4cc(C5CC5)ccc4n3)ccn2)c1` (single isomer, unassigned) [Example I-224, rac-(1S*,2S*)-2-(2-cyano-5-methoxyphenyl)-N-(4-(((6-cyclopropylimidazo[1,2-a]pyridin-2-yl)methyl)amino)pyridin-2-yl)cyclopropane-1-carboxamide], the EC50 in assay [1] was under 1 nM. Moreover, the IC90 at plasma kallikrein fell in the range of 10000 to 48000 nM.
The matching figures for `Cc1ccnc([C@H]2C[C@@H]2C(=O)Nc2cc(NCc3cn4cc(C5CC5)cc(N5CC(=O)N(C)C5=O)c4n3)ncn2)n1` (single isomer, unassigned) [Example I-260]: under 1 nM and under 400 nM.
Turning to `CN1C(=O)CN(c2cc(C3CC3)cn3cc(CNc4cc(NC(=O)[C@H]5C[C@@H]5c5cc(Cl)ccn5)ncn4)nc23)C1=O` (single isomer, unassigned) [Example I-264], the half-maximal effective concentration (EC50) in assay [1] is under 1 nM. In addition, the IC90 on plasma kallikrein fell in the range of 400 to 1500 nM.
Take `O=C(Nc1cc(NCc2cn3cc(C4CC4)ccc3n2)ncn1)[C@H]1C[C@@H]1c1cc(Cl)ccn1` (single isomer, unassigned) [Example I-267, rac-(1S*,2S*)-2-(4-chloropyridin-2-yl)-N-(6-(((6-cyclopropylimidazo[1,2-a]pyridin-2-yl)methyl)amino)pyrimidin-4-yl)cyclopropane-1-carboxamide]: the EC50 in assay [1] lay within 1 to 10 nM. At plasma kallikrein, the IC90 lay within 10000 to 48000 nM.
The corresponding values for `O=C(Nc1cc(NCc2cn3cc(C4CC4)ccc3n2)ccn1)[C@H]1C[C@@H]1c1cc(Cl)ccn1` (single isomer, unassigned) [Example I-270, rac-(1S*,2S*)-2-(4-chloropyridin-2-yl)-N-(4-(((6-cyclopropylimidazo[1,2-a]pyridin-2-yl)methyl)amino)pyridin-2-yl)cyclopropane-1-carboxamide] are under 1 nM and 1500 to 10000 nM.
As for `O=C(Nc1cc(N2C[C@@H](O)C[C@@H]2c2cn3cc(C4CC4)ccc3n2)ncn1)[C@H]1C[C@@H]1c1cc(Cl)ccn1` (single isomer, unassigned; isomer 2) [Example I-249, (1S*,2S*)-2-(4-chloropyridin-2-yl)-N-(6-((2R,4S)-2-(6-cyclopropylimidazo[1,2-a]pyridin-2-yl)-4-hydroxypyrrolidin-1-yl)pyrimidin-4-yl)cyclopropane-1-carboxamide, isomer 2], the EC50 in assay [1] is 1 to 10 nM. Besides, the IC90 at plasma kallikrein is under 400 nM.
For the molecule `Cc1ccnc([C@H]2C[C@@H]2C(=O)Nc2cc(OCc3cn4cc(C5CC5)cc(N5CC(=O)NC5=O)c4n3)ncn2)n1` [Example 32, (1S,2S)—N-(6-((6-cyclopropyl-8-(2,4-dioxoimidazolidin-1-yl)imidazo[1,2-a]pyridin-2-yl)methoxy)pyrimidin-4-yl)-2-(4-methylpyrimidin-2-yl)cyclopropane-1-carboxamide], the EC50 in assay [1] is under 1 nM. Moreover, the IC90 at plasma kallikrein was under 400 nM.
Turning to `Cc1cc(OCc2cn3cc(C4CC4)cc(N4CC(=O)N(C)C4=O)c3n2)cc(NC(=O)[C@H]2C[C@@H]2c2nccc(C)n2)n1` [Example 34, (1S,2S)—N-(4-((6-cyclopropyl-8-(3-methyl-2,4-dioxoimidazolidin-1-yl)imidazo[1,2-a]pyridin-2-yl)methoxy)-6-methylpyridin-2-yl)-2-(4-methylpyrimidin-2-yl)cyclopropane-1-carboxamide], in assay [1], the EC50 is under 1 nM. The IC90 on plasma kallikrein was under 400 nM.
As to `O=C(Nc1cc(NCc2cn3cc(C4CC4)cc(N4CCCC4=O)c3n2)ccn1)[C@H]1C[C@@H]1c1cccc(Cl)c1` [Example 85, (1S,2S)-2-(3-chlorophenyl)-N-(4-(((6-cyclopropyl-8-(2-oxopyrrolidin-1-yl)imidazo[1,2-a]pyridin-2-yl)methyl)amino)pyridin-2-yl)cyclopropane-1-carboxamide], the EC50 in assay [1] was under 1 nM. In addition, the IC90 on plasma kallikrein is 400 to 1500 nM.
With `CN1CCN(c2cc(C3CC3)cn3cc(CNc4ccnc(NC(=O)[C@H]5C[C@@H]5c5cccc(Cl)c5)n4)nc23)CC1` [Example 88, (1S,2S)-2-(3-chlorophenyl)-N-(4-(((6-cyclopropyl-8-(4-methylpiperazin-1-yl)imidazo[1,2-a]pyridin-2-yl)methyl)amino)pyrimidin-2-yl)cyclopropane-1-carboxamide], the 50% effective concentration (EC50) in assay [1] is under 1 nM. For the same molecule, on plasma kallikrein, the IC90 was 400 to 1500 nM.
For the molecule `O=C(Nc1cc(NCc2cn3cc(C4CC4)cc(N4C(=O)C5CCC4C5)c3n2)ccn1)[C@H]1C[C@@H]1c1cccc(Cl)c1` (stereo partly drawn) [Example 92, (1S,2S)-2-(3-chlorophenyl)-N-(4-(((6-cyclopropyl-8-(3-oxo-2-azabicyclo[2.2.1]heptan-2-yl)imidazo[1,2-a]pyridin-2-yl)methyl)amino)pyridin-2-yl)cyclopropane-1-carboxamide], the half-maximal effective concentration (EC50) in assay [1] was under 1 nM. In addition, on plasma kallikrein, the IC90 is 1500 to 10000 nM.
`O=C(Nc1cc(NCc2cn3cc(C4CC4)cc(N4CC5CC5C4=O)c3n2)ccn1)[C@H]1C[C@@H]1c1cccc(Cl)c1` (stereo partly drawn) [Example 95, (S,2S)-2-(3-chlorophenyl)-N-(4-(((6-cyclopropyl-8-(2-oxo-3-azabicyclo[3.1.0]hexan-3-yl)imidazo[1,2-a]pyridin-2-yl)methyl)amino)pyridin-2-yl)cyclopropane-1-carboxamide]: the EC50 in assay [1] was under 1 nM. The IC90 on plasma kallikrein lay within 1500 to 10000 nM.
In the case of `O=C(Nc1cc(NCc2cn3cc(C4CC4)cc(CO)c3n2)ccn1)[C@H]1C[C@@H]1c1cccc(Cl)c1` [Example 99, (1S,2S)-2-(3-chlorophenyl)-N-(4-(((6-cyclopropyl-8-(hydroxymethyl)imidazo[1,2-a]pyridin-2-yl)methyl)amino)pyridin-2-yl)cyclopropane-1-carboxamide], the EC50 in assay [1] is under 1 nM. The IC90 on plasma kallikrein was 400 to 1500 nM.
As to `CC(C)(O)c1cc(C2CC2)cn2cc(CNc3ccnc(NC(=O)[C@H]4C[C@@H]4c4cccc(Cl)c4)c3)nc12` [Example 122, (1S,2S)-2-(3-chlorophenyl)-N-(4-(((6-cyclopropyl-8-(2-hydroxypropan-2-yl)imidazo[1,2-a]pyridin-2-yl)methyl)amino)pyridin-2-yl)cyclopropane-1-carboxamide], the EC50 in assay [1] was in the range of 1 to 10 nM. In addition, the concentration for an effect of 90% (IC90) at plasma kallikrein is 10000 to 48000 nM.
As for `CC(C)c1ccc2nc(CNc3ccnc(NC(=O)[C@H]4C[C@@H]4c4cccc(Cl)c4)c3)cn2c1` [Example 123, (1S,2S)-2-(3-chlorophenyl)-N-(4-(((6-isopropylimidazo[1,2-a]pyridin-2-yl)methyl)amino)pyridin-2-yl)cyclopropane-1-carboxamide], the EC50 in assay [1] was under 1 nM. Further, the IC90 at plasma kallikrein was in the range of 10000 to 48000 nM.
For `O=C(Nc1cc(NCc2cn3cc(C4CC4)cc(N4CC(F)C4)c3n2)ccn1)[C@H]1C[C@@H]1c1cccc(Cl)c1` [Example 125, (1S,2S)-2-(3-chlorophenyl)-N-(4-(((6-cyclopropyl-8-(3-fluoroazetidin-1-yl)imidazo[1,2-a]pyridin-2-yl)methyl)amino)pyridin-2-yl)cyclopropane-1-carboxamide], the EC50 in assay [1] lay in the range of 1 to 10 nM. Besides, on plasma kallikrein, the IC90 was 10000 to 48000 nM.
For the molecule `CS(=O)(=O)Nc1cc(C2CC2)cn2cc(CNc3ccnc(NC(=O)[C@H]4C[C@@H]4c4cccc(Cl)c4)c3)nc12` [Example 126, (1S,2S)-2-(3-chlorophenyl)-N-(4-(((6-cyclopropyl-8-(methylsulfonamido)imidazo[1,2-a]pyridin-2-yl)methyl)amino)pyridin-2-yl)cyclopropane-1-carboxamide], in assay [1], the half-maximal effective concentration (EC50) was under 1 nM. In addition, at plasma kallikrein, the IC90 was 10000 to 48000 nM.
With `CN1CCN(c2cc(C3CC3)cn3cc(CNc4ccnc(NC(=O)[C@H]5C[C@@H]5c5cccc(Cl)c5)c4)nc23)C(=O)C1` [Example 127, (1S,2S)-2-(3-chlorophenyl)-N-(4-(((6-cyclopropyl-8-(4-methyl-2-oxopiperazin-1-yl)imidazo[1,2-a]pyridin-2-yl)methyl)amino)pyridin-2-yl)cyclopropane-1-carboxamide], the EC50 in assay [1] is under 1 nM. The IC90 on plasma kallikrein is under 400 nM.
For the molecule `CN(c1cc(C2CC2)cn2cc(CNc3ccnc(NC(=O)[C@H]4C[C@@H]4c4cccc(Cl)c4)c3)nc12)S(C)(=O)=O` [Example 128, (1S,2S)-2-(3-chlorophenyl)-N-(4-(((6-cyclopropyl-8-(N-methylmethylsulfonamido)imidazo[1,2-a]pyridin-2-yl)methyl)amino)pyridin-2-yl)cyclopropane-1-carboxamide], the EC50 in assay [1] is under 1 nM. Moreover, the IC90 at plasma kallikrein fell in the range of 400 to 1500 nM.
